Measurements: patent US12077503B2, “Substituted cyclic amides and their use as herbicides” (FMC CORPORATION, priority 2015, dated 2024)

Key:
Assay type in all cases: in vivo
Kochia (Kochia scoparia) [1] = assay: Test A preemergence; conditions: Bassia scoparia, pre-emergence, 240 h, preemergence, read-out: Plant response rating, Kochia; for pest or weed control at 125 g/ha: 125 g ai/ha, visual rating after approx. 10 d, 0 to 100 scale where 0 is no effect and 100 is complete control; for pest or weed control at 500 g/ha: 500 g ai/ha, 0 to 100 scale, 0 = no effect, 100 = complete control
Procedure, shortened: (§1)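 Visual injury, scored on a 0–100 scale relative to untreated controls, was recorded about 10 d after application. Treatments were a preemergence soil spray over planted seeds or a postemergence spray on plants at the one- to two-leaf stage, 2 to 10 cm tall, all in loam soil–sand blend in the greenhouse.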

[2] = system: barnyardgrass (Echinochloa crus-galli); assay: Test A preemergence; conditions: Echinochloa crus-galli, pre-emergence, 240 h, preemergence, read-out: Plant response rating, Barnyardgrass; for pest or weed control at 125 g/ha: 125 g ai/ha, visual rating after approx. 10 d, 0 to 100 scale where 0 is no effect and 100 is complete control; for pest or weed control at 500 g/ha: 500 g ai/ha, 0 to 100 scale, 0 = no effect, 100 = complete control
Procedure, shortened: as §1

[3] = system: giant foxtail (Setaria faberii); assay: Test A preemergence; conditions: Setaria faberi, pre-emergence, 240 h, preemergence, read-out: Plant response rating, Foxtail, Giant; for pest or weed control at 125 g/ha: 125 g ai/ha, visual rating after approx. 10 d, 0 to 100 scale where 0 is no effect and 100 is complete control; for pest or weed control at 500 g/ha: 500 g ai/ha, 0 to 100 scale, 0 = no effect, 100 = complete control
Procedure, shortened: as §1

[4] = system: pigweed (Amaranthus retroflexus); assay: Test A preemergence; conditions: Amaranthus retroflexus, pre-emergence, 240 h, preemergence, read-out: Plant response rating, Pigweed; for pest or weed control at 125 g/ha: 125 g ai/ha, visual rating after approx. 10 d, 0 to 100 scale where 0 is no effect and 100 is complete control; for pest or weed control at 500 g/ha: 500 g ai/ha, 0 to 100 scale, 0 = no effect, 100 = complete control
[5] = system: ragweed (common ragweed, Ambrosia elatior); assay: Test A preemergence; conditions: Ambrosia artemisiifolia, pre-emergence, 240 h, preemergence, read-out: Plant response rating, Ragweed; for pest or weed control at 125 g/ha: 125 g ai/ha, visual rating after approx. 10 d, 0 to 100 scale where 0 is no effect and 100 is complete control; for pest or weed control at 500 g/ha: 500 g ai/ha, 0 to 100 scale, 0 = no effect, 100 = complete control
Procedure, shortened: as §1

[6] = system: ryegrass, Italian (Italian ryegrass, Lolium multiflorum); assay: Test A preemergence; conditions: Lolium multiflorum, pre-emergence, 240 h, 125 g ai/ha, preemergence; visual rating after approx. 10 d; 0 to 100 scale where 0 is no effect and 100 is complete control; read-out: Plant response rating, Ryegrass, Italian
Procedure, shortened: as §1

Kochia (Kochia scoparia) [7] = assay: Test A postemergence; conditions: Bassia scoparia, post-emergence, 240 h, 125 g ai/ha, postemergence; visual injury after approximately 10 d; 0 to 100 scale (0 no effect, 100 complete control); read-out: Plant response rating, Kochia
Procedure, shortened: as §1

[8] = system: barnyardgrass (Echinochloa crus-galli); assay: Test A postemergence; conditions: Echinochloa crus-galli, post-emergence, 240 h, 125 g ai/ha, postemergence; visual injury after approximately 10 d; 0 to 100 scale (0 no effect, 100 complete control); read-out: Plant response rating, Barnyardgrass
Procedure, shortened: as §1

[9] = system: blackgrass (Alopecurus myosuroides); assay: Test A postemergence; conditions: Alopecurus myosuroides, post-emergence, 240 h, 125 g ai/ha, postemergence; visual injury after approximately 10 d; 0 to 100 scale (0 no effect, 100 complete control); read-out: Plant response rating, Blackgrass
Procedure, shortened: as §1

[10] = system: giant foxtail (Setaria faberii); assay: Test A postemergence; conditions: Setaria faberi, post-emergence, 240 h, 125 g ai/ha, postemergence; visual injury after approximately 10 d; 0 to 100 scale (0 no effect, 100 complete control); read-out: Plant response rating, Foxtail, Giant
Procedure, shortened: as §1

[11] = system: ragweed (common ragweed, Ambrosia elatior); assay: Test A postemergence; conditions: Ambrosia artemisiifolia, post-emergence, 240 h, 125 g ai/ha, postemergence; visual injury after approximately 10 d; 0 to 100 scale (0 no effect, 100 complete control); read-out: Plant response rating, Ragweed
Procedure, shortened: as §1

[12] = system: barnyardgrass (Echinochloa crus-galli); assay: Test B flooded paddy test; conditions: Echinochloa crus-galli, Flood, 250 g ai/ha; scale of 0 to 100 where 0 is no effect and 100 is complete control; read-out: Barnyardgrass plant response rating
Procedure, shortened: (§2)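 Response scored visually against untreated controls, 0 = no effect and 100 = complete control, 13–15 d after treatment in the greenhouse. Compounds added to paddy water held 3 cm above soil surface. Treatment given at 2-leaf stage.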

[13] = system: ducksalad (Heteranthera limosa); assay: Test B flooded paddy test; conditions: Heteranthera limosa, Flood, 250 g ai/ha; scale of 0 to 100 where 0 is no effect and 100 is complete control; read-out: Ducksalad plant response rating
Procedure, shortened: as §2

rice (Oryra sativa) = assay: Test B flooded paddy test; conditions: Oryza sativa, Flood, 250 g ai/ha; scale of 0 to 100 where 0 is no effect and 100 is complete control; read-out: Rice plant response rating
Procedure, shortened: as §2

[14] = system: sedge, umbrella (small-flower umbrella sedge, Cyperus difformis); assay: Test B flooded paddy test; conditions: Cyperus difformis, Flood, 250 g ai/ha; scale of 0 to 100 where 0 is no effect and 100 is complete control; read-out: Sedge, Umbrella plant response rating
Procedure, shortened: as §2

CCc1ccc([C@H]2CNC(=S)[C@@H]2C(=O)Nc2cccc(F)c2F)cc1 [Compound 762]
98%: pest or weed control at 250 g/ha [13]
70%: pest or weed control at 125 g/ha [3]
50%: pest or weed control at 500 g/ha (Kochia (Kochia scoparia) [1]) | pest or weed control at 500 g/ha [5]
90%: pest or weed control at 125 g/ha [8]
100%: pest or weed control at 125 g/ha [2] | pest or weed control at 500 g/ha [2] | pest or weed control at 500 g/ha [3]
0%: pest or weed control at 125 g/ha (Kochia (Kochia scoparia) [1]) | pest or weed control at 125 g/ha [4] | pest or weed control at 500 g/ha [4] | pest or weed control at 125 g/ha [5] | pest or weed control at 125 g/ha (Kochia (Kochia scoparia) [7]) | pest or weed control at 125 g/ha [9] | pest or weed control at 125 g/ha [11] | pest or weed control at 250 g/ha [12] | pest or weed control at 250 g/ha (rice (Oryra sativa)) | pest or weed control at 250 g/ha [14]
20%: pest or weed control at 125 g/ha [6] | pest or weed control at 125 g/ha [10]

CCc1ccc([C@H]2CNC(=S)[C@@H]2C(=O)Nc2ccccc2SC)cc1 [Compound 763]
60%: pest or weed control at 250 g/ha [13]
50%: pest or weed control at 500 g/ha [3]
80%: pest or weed control at 125 g/ha [2] | pest or weed control at 500 g/ha [2]
30%: pest or weed control at 125 g/ha (Kochia (Kochia scoparia) [1]) | pest or weed control at 500 g/ha (Kochia (Kochia scoparia) [1]) | pest or weed control at 500 g/ha [4]
0%: pest or weed control at 125 g/ha [3] | pest or weed control at 125 g/ha [4] | pest or weed control at 125 g/ha [5] | pest or weed control at 500 g/ha [5] | pest or weed control at 125 g/ha [6] | pest or weed control at 125 g/ha (Kochia (Kochia scoparia) [7]) | pest or weed control at 125 g/ha [8] | pest or weed control at 125 g/ha [9] | pest or weed control at 125 g/ha [10] | pest or weed control at 125 g/ha [11] | pest or weed control at 250 g/ha [12] | pest or weed control at 250 g/ha (rice (Oryra sativa)) | pest or weed control at 250 g/ha [14]

O=C1NC[C@H](c2ccc3c(c2)OCO3)[C@H]1C(=O)Nc1ccccc1F [Compound 767]
100%: pest or weed control at 250 g/ha [13]
90%: pest or weed control at 125 g/ha [2] | pest or weed control at 500 g/ha [2] | pest or weed control at 500 g/ha [3]
70%: pest or weed control at 125 g/ha [8]
0%: pest or weed control at 125 g/ha (Kochia (Kochia scoparia) [1]) | pest or weed control at 500 g/ha (Kochia (Kochia scoparia) [1]) | pest or weed control at 125 g/ha [3] | pest or weed control at 125 g/ha [4] | pest or weed control at 500 g/ha [4] | pest or weed control at 125 g/ha [5] | pest or weed control at 500 g/ha [5] | pest or weed control at 125 g/ha [6] | pest or weed control at 125 g/ha (Kochia (Kochia scoparia) [7]) | pest or weed control at 125 g/ha [9] | pest or weed control at 125 g/ha [10] | pest or weed control at 125 g/ha [11] | pest or weed control at 250 g/ha [12] | pest or weed control at 250 g/ha (rice (Oryra sativa)) | pest or weed control at 250 g/ha [14]
